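Assay format: 96-well plates, 48-hour exposure. Abbreviation: GI50, concentration required for 50% inhibition of growth.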 Activity calls are given as the source filed them. Cut-off read from the data, not from the text of the source: active = GI50 up to about 1.1 µM and inactive = higher.
Experiments:
Experiment in all cases: NCI tumour cell line growth inhibition, 48 h
HCT-15 = system: HCT-15
HOP-62 = system: HOP-62
MDA-MB-231 = system: MDA-MB-231
M19-MEL = system: M19-MEL
SR = system: SR
MCF7 = system: MCF7
HOP-92 = system: HOP-92
XF498 = system: XF498
SF-295 = system: SF-295
SK-MEL-5 = system: SK-MEL-5
ACHN = system: ACHN
PC-3 = system: PC-3
DU-145 = system: DU-145
BT-549 = system: BT-549
LXFL 529 = system: LXFL 529
KM-20L2 = system: KM-20L2
NCI-H460 = system: NCI-H460
SK-OV-3 = system: SK-OV-3
UO-31 = system: UO-31
Hs-578T = system: Hs-578T
CAKI-1 = system: CAKI-1
OVCAR-3 = system: OVCAR-3
CCRF-CEM = system: CCRF-CEM
HCC 2998 = system: HCC 2998
A498 = system: A498
RXF 393 = system: RXF 393
Malme-3M = system: Malme-3M
IGROV-1 = system: IGROV-1
MOLT-4 = system: MOLT-4
OVCAR-4 = system: OVCAR-4
SF-268 = system: SF-268
DLD-1 = system: DLD-1
KM12 = system: KM12
MDA-N = system: MDA-N
SNB-75 = system: SNB-75
MDA-MB-435 = system: MDA-MB-435
SK-MEL-2 = system: SK-MEL-2
SN12C = system: SN12C
HT-29 = system: HT-29
DMS-114 = system: DMS-114
OVCAR-8 = system: OVCAR-8
NCI-H522 = system: NCI-H522
NCI/ADR-RES = system: NCI/ADR-RES
SNB-78 = system: SNB-78
SF-539 = system: SF-539
UACC-257 = system: UACC-257
COLO 205 = system: COLO 205
RPMI-8226 = system: RPMI-8226
K562 = system: K562
HCT-116 = system: HCT-116
SNB-19 = system: SNB-19
UACC-62 = system: UACC-62
M14 = system: M14
EKVX = system: EKVX
DMS-273 = system: DMS-273
OVCAR-5 = system: OVCAR-5
786-0 = system: 786-0
SW-620 = system: SW-620
HL-60 = system: HL-60
T47D = system: T47D
NCI-H226 = system: NCI-H226
NCI-H23 = system: NCI-H23
U-251 = system: U-251
HOP-18 = system: HOP-18
A549 = system: A549
SK-MEL-28 = system: SK-MEL-28
TK-10 = system: TK-10
LOX IMVI = system: LOX IMVI
RXF 631 = system: RXF 631

Structure (SMILES): Nc1ccc(Sc2c3ccccc3nc3ccccc23)cc1
- GI50 (HCT-15): 17.2 µM
- GI50 (HOP-62): 29.7 µM (inactive)
- GI50 (MDA-MB-231): 14.7 µM (inactive)
- GI50 (M19-MEL): 20.5 µM (inactive)
- GI50 (SR): 3.74 µM (inactive)
- GI50 (MCF7): 12.4 µM (inactive)
- GI50 (HOP-92): 10.1 µM (inactive)
- GI50 (XF498): 14.4 µM (inactive)
- GI50 (SF-295): 19.1 µM (inactive)
- GI50 (SK-MEL-5): 16.6 µM (inactive)
- GI50 (ACHN): 12.3 µM (inactive)
- GI50 (PC-3): 13.1 µM (inactive)
- GI50 (DU-145): 13.7 µM (inactive)
- GI50 (BT-549): 14.3 µM (inactive)
- GI50 (LXFL 529): 7.96 µM (inactive)
- GI50 (KM-20L2): 16.7 µM (inactive)
- GI50 (NCI-H460): 20.4 µM (inactive)
- GI50 (SK-OV-3): 22.3 µM (inactive)
- GI50 (UO-31): 17.5 µM (inactive)
- GI50 (Hs-578T): 25.6 µM (inactive)
- GI50 (CAKI-1): 18.5 µM (inactive)
- GI50 (OVCAR-3): 15.6 µM (inactive)
- GI50 (CCRF-CEM): 3.28 µM (inactive)
- GI50 (HCC 2998): 24.4 µM (inactive)
- GI50 (A498): 68.5 µM (inactive)
- GI50 (RXF 393): 18.7 µM (inactive)
- GI50 (Malme-3M): 19.7 µM (inactive)
- GI50 (IGROV-1): 17.7 µM (inactive)
- GI50 (MOLT-4): 3.02 µM (inactive)
- GI50 (OVCAR-4): 12.1 µM (inactive)
- GI50 (SF-268): 18.5 µM (inactive)
- GI50 (DLD-1): 6 µM (inactive)
- GI50 (KM12): 18.6 µM (inactive)
- GI50 (MDA-N): 12.2 µM (inactive)
- GI50 (SNB-75): 17.1 µM (inactive)
- GI50 (MDA-MB-435): 17.2 µM (inactive)
- GI50 (SK-MEL-2): 16.9 µM (inactive)
- GI50 (SN12C): 18.5 µM (inactive)
- GI50 (HT-29): 15.8 µM (inactive)
- GI50 (DMS-114): 18.2 µM (inactive)
- GI50 (OVCAR-8): 13.8 µM (inactive)
- GI50 (NCI-H522): 6.15 µM (inactive)
- GI50 (NCI/ADR-RES): 7.73 µM (inactive)
- GI50 (SNB-78): 22.4 µM (inactive)
- GI50 (SF-539): 15.6 µM (inactive)
- GI50 (UACC-257): 16.6 µM (inactive)
- GI50 (COLO 205): 11.5 µM (inactive)
- GI50 (RPMI-8226): 2.82 µM (inactive)
- GI50 (K562): 2.65 µM (inactive)
- GI50 (HCT-116): 10.8 µM (inactive)
- GI50 (SNB-19): 22.1 µM (inactive)
- GI50 (UACC-62): 15.2 µM (inactive)
- GI50 (M14): 15.7 µM (inactive)
- GI50 (EKVX): 23 µM (inactive)
- GI50 (DMS-273): 14.1 µM (inactive)
- GI50 (OVCAR-5): 21.8 µM (inactive)
- GI50 (786-0): 5.48 µM (inactive)
- GI50 (SW-620): 10.4 µM (inactive)
- GI50 (HL-60): 2.96 µM (inactive)
- GI50 (T47D): 2.06 µM (inactive)
- GI50 (NCI-H226): 18.7 µM (inactive)
- GI50 (NCI-H23): 17.7 µM (inactive)
- GI50 (U-251): 15.2 µM (inactive)
- GI50 (HOP-18): 22.3 µM (inactive)
- GI50 (A549): 33.3 µM (inactive)
- GI50 (SK-MEL-28): 15.2 µM (inactive)
- GI50 (TK-10): 13.4 µM (inactive)
- GI50 (LOX IMVI): 5.62 µM (inactive)

Structure (SMILES): CN(C(=O)C12C3C4C1C1C2C3C41C(=O)C(C)(C)C)C(C)(C)C (stereo not given)
- GI50 (HOP-62): > 100 µM (inactive)
- GI50 (M19-MEL): > 100 µM (inactive)
- GI50 (XF498): > 100 µM (inactive)
- GI50 (SF-295): > 100 µM (inactive)
- GI50 (SK-MEL-5): > 100 µM (inactive)
- GI50 (ACHN): > 100 µM (inactive)
- GI50 (LXFL 529): > 100 µM (inactive)
- GI50 (KM-20L2): > 100 µM (inactive)
- GI50 (SK-OV-3): > 100 µM (inactive)
- GI50 (UO-31): > 100 µM (inactive)
- GI50 (CAKI-1): > 100 µM (inactive)
- GI50 (OVCAR-3): > 100 µM (inactive)
- GI50 (CCRF-CEM): > 100 µM (inactive)
- GI50 (HCC 2998): > 100 µM (inactive)
- GI50 (A498): > 100 µM (inactive)
- GI50 (Malme-3M): > 100 µM (inactive)
- GI50 (IGROV-1): > 100 µM (inactive)
- GI50 (RXF 631): > 100 µM (inactive)
- GI50 (MOLT-4): > 100 µM (inactive)
- GI50 (OVCAR-4): > 100 µM (inactive)
- GI50 (SF-268): > 100 µM (inactive)
- GI50 (DLD-1): > 100 µM (inactive)
- GI50 (KM12): > 100 µM (inactive)
- GI50 (SNB-75): 76 µM (inactive)
- GI50 (SK-MEL-2): > 100 µM (inactive)
- GI50 (SN12C): > 100 µM (inactive)
- GI50 (HT-29): > 100 µM (inactive)
- GI50 (DMS-114): > 100 µM (inactive)
- GI50 (OVCAR-8): > 100 µM (inactive)
- GI50 (NCI-H522): 22 µM (inactive)
- GI50 (SNB-78): > 100 µM (inactive)
- GI50 (SF-539): > 100 µM (inactive)
- GI50 (UACC-257): > 100 µM (inactive)
- GI50 (COLO 205): > 100 µM (inactive)
- GI50 (RPMI-8226): > 100 µM (inactive)
- GI50 (K562): > 100 µM (inactive)
- GI50 (HCT-116): > 100 µM (inactive)
- GI50 (SNB-19): > 100 µM (inactive)
- GI50 (UACC-62): > 100 µM (inactive)
- GI50 (M14): > 100 µM (inactive)
- GI50 (EKVX): > 100 µM (inactive)
- GI50 (DMS-273): > 100 µM (inactive)
- GI50 (OVCAR-5): > 100 µM (inactive)
- GI50 (786-0): > 100 µM (inactive)
- GI50 (SW-620): > 100 µM (inactive)
- GI50 (HL-60): 63.5 µM (inactive)
- GI50 (NCI-H23): > 100 µM (inactive)
- GI50 (U-251): > 100 µM (inactive)
- GI50 (A549): > 100 µM (inactive)
- GI50 (SK-MEL-28): > 100 µM (inactive)
- GI50 (TK-10): > 100 µM (inactive)
- GI50 (LOX IMVI): > 100 µM (inactive)

Reference: ChEMBL document CHEMBL1201862, “PubChem BioAssay data set” (2004)
